Assay results from ChEMBL document CHEMBL1129759, “A comparative study of the solvolysis reactivity, regioselectivity, and stereochemistry of the duocarmycin a and sa alkylation subunits” (Bioorg Med Chem Lett, 1996).

Key:
[1] = Half-life […] at pH 3.0; assay type: ADME, cell-free
L1210 [2] = assay: Compound was tested for its anti tumor activity against L1210 cells; assay type: functional, cell-based; settings: Mus musculus
L1210 [3] = assay: The compound was tested for its anti tumor activity against L1210 cells; assay type: functional, cell-based; settings: Mus musculus

Compound | half-life [1] [h] | IC50 (L1210 [2]) [nM] | IC50 (L1210 [3]) [nM]
COC(=O)c1cc2c([nH]1)C(=O)C=C1N(C(=O)OC(C)(C)C)C[C@H]3C[C@]123 | 177 | 6 | –
Cc1c[nH]c2c1[C@@]13C[C@@H]1CN(C(=O)OC(C)(C)C)C3=CC2=O | 37 | – | 330
COC(=O)[C@]1(C)N=C2C(=O)C=C3N(C(=O)OC(C)(C)C)C[C@H]4C[C@@]34C2=C1O | 11 | 2000 | –
